Test results reported in ChEMBL document CHEMBL3045618, “Effect of seven new orchard pesticides on Galendromus occidentalis in laboratory studies” (2009).

Assays:
Format in all cases: functional
[1] = tested on: Galendromus occidentalis; assay: Toxicity against Metaseiulus occidentalis adults in bean leaf disk infested with two-spotted spider mites assessed as repellency at 0.3024 g AI/L treated using worst-case laboratory exposure procedure measured after 48 hr (reference value: 13.6%)
[2] = tested on: Galendromus occidentalis; assay: Toxicity against Metaseiulus occidentalis adults in bean leaf disk infested with two-spotted spider mites assessed as repellency at 0.3024 g AI/L treated using worst-case laboratory exposure procedure measured after 72 hr (reference value: 16.1%)
[3] = tested on: Galendromus occidentalis; assay: Toxicity against Metaseiulus occidentalis adults in bean leaf disk infested with two-spotted spider mites assessed as repellency at 0.3024 g AI/L treated using worst-case laboratory exposure procedure measured after 24 hr (reference value: 3.6%)
[4] = tested on: Galendromus occidentalis; assay: Toxicity against Metaseiulus occidentalis adults in bean leaf disk infested with two-spotted spider mites assessed as average number of eggs laid (fecundity) at 0.3024 g AI/L treated using worst-case laboratory exposure procedure measured after 72 hr (reference value: 2.23/day)
[5] = tested on: Galendromus occidentalis; assay: Toxicity against Metaseiulus occidentalis adults in bean leaf disk infested with two-spotted spider mites assessed as corrected mortality at 0.3024 g AI/L treated using worst-case laboratory exposure procedure measured after 72 hr
[6] = tested on: Galendromus occidentalis; assay: Toxicity against Metaseiulus occidentalis adults in bean leaf disk infested with two-spotted spider mites assessed as average number of eggs laid (fecundity) at 0.3024 g AI/L treated using worst-case laboratory exposure procedure measured after 48 hr (reference value: 2.30/day)
[7] = tested on: Galendromus occidentalis; assay: Toxicity against Metaseiulus occidentalis adults in bean leaf disk infested with two-spotted spider mites assessed as average number of eggs laid (fecundity) at 0.3024 g AI/L treated using worst-case laboratory exposure procedure measured after 24 hr (reference value: 2.11/day)
[8] = tested on: Galendromus occidentalis; assay: Ovicidal activity against Metaseiulus occidentalis eggs in bean leaf disk infested with two-spotted spider mites assessed as corrected cumulative mortality at 240 g/L SC formulation treated using worst-case laboratory exposure procedure measured after 144 hr (reference value: 0.7%)
[9] = tested on: Galendromus occidentalis; assay: Toxicity against Metaseiulus occidentalis adults in bean leaf disk infested with two-spotted spider mites assessed as repellency at 0.1333 g AI/L treated using worst-case laboratory exposure procedure measured after 72 hr (reference value: 16.1%)
[10] = tested on: Galendromus occidentalis; assay: Toxicity against Metaseiulus occidentalis adults in bean leaf disk infested with two-spotted spider mites assessed as repellency at 0.1333 g AI/L treated using worst-case laboratory exposure procedure measured after 48 hr (reference value: 13.6%)
[11] = tested on: Galendromus occidentalis; assay: Toxicity against Metaseiulus occidentalis adults in bean leaf disk infested with two-spotted spider mites assessed as repellency at 0.1333 g AI/L treated using worst-case laboratory exposure procedure measured after 24 hr (reference value: 3.6%)
[12] = tested on: Galendromus occidentalis; assay: Toxicity against Metaseiulus occidentalis adults in bean leaf disk infested with two-spotted spider mites assessed as average number of eggs laid (fecundity) at 0.1333 g AI/L treated using worst-case laboratory exposure procedure measured after 72 hr (reference value: 2.23/day)
[13] = tested on: Galendromus occidentalis; assay: Toxicity against Metaseiulus occidentalis adults in bean leaf disk infested with two-spotted spider mites assessed as corrected mortality at 0.1600 g AI/L treated using worst-case laboratory exposure procedure measured after 72 hr
[14] = tested on: Galendromus occidentalis; assay: Toxicity against Metaseiulus occidentalis adults in bean leaf disk infested with two-spotted spider mites assessed as corrected mortality at 2x0.1600 g AI/L treated using worst-case laboratory exposure procedure measured after 72 hr
[15] = tested on: Galendromus occidentalis; assay: Toxicity against Metaseiulus occidentalis adults in bean leaf disk infested with two-spotted spider mites assessed as average number of eggs laid (fecundity) at 0.1333 g AI/L treated using worst-case laboratory exposure procedure measured after 48 hr (reference value: 2.30/day)
[16] = tested on: Galendromus occidentalis; assay: Toxicity against Metaseiulus occidentalis adults in bean leaf disk infested with two-spotted spider mites assessed as average number of eggs laid (fecundity) at 0.1333 g AI/L treated using worst-case laboratory exposure procedure measured after 24 hr (reference value: 2.11/day)
[17] = tested on: Galendromus occidentalis; assay: Toxicity against Metaseiulus occidentalis adults in bean leaf disk infested with two-spotted spider mites assessed as corrected mortality at 4x0.1600 g AI/L treated using worst-case laboratory exposure procedure measured after 72 hr
[18] = tested on: Galendromus occidentalis; assay: Ovicidal activity against Metaseiulus occidentalis eggs in bean leaf disk infested with two-spotted spider mites assessed as corrected cumulative mortality at 480 g/L SC formulation treated using worst-case laboratory exposure procedure measured after 144 hr (reference value: 0.7%)
[19] = tested on: Galendromus occidentalis; assay: Toxicity against Metaseiulus occidentalis adults in bean leaf disk infested with two-spotted spider mites assessed as repellency at 0.1600 g AI/L treated using worst-case laboratory exposure procedure measured after 72 hr (reference value: 16.1%)
[20] = tested on: Galendromus occidentalis; assay: Toxicity against Metaseiulus occidentalis adults in bean leaf disk infested with two-spotted spider mites assessed as repellency at 0.1600 g AI/L treated using worst-case laboratory exposure procedure measured after 48 hr (reference value: 13.6%)
[21] = tested on: Galendromus occidentalis; assay: Toxicity against Metaseiulus occidentalis adults in bean leaf disk infested with two-spotted spider mites assessed as repellency at 0.1600 g AI/L treated using worst-case laboratory exposure procedure measured after 24 hr (reference value: 3.6%)
[22] = tested on: Galendromus occidentalis; assay: Toxicity against Metaseiulus occidentalis adults in bean leaf disk infested with two-spotted spider mites assessed as average number of eggs laid (fecundity) at 0.1600 g AI/L treated using worst-case laboratory exposure procedure measured after 72 hr (reference value: 2.23/day)
[23] = tested on: Galendromus occidentalis; assay: Toxicity against Metaseiulus occidentalis adults in bean leaf disk infested with two-spotted spider mites assessed as average number of eggs laid (fecundity) at 0.1600 g AI/L treated using worst-case laboratory exposure procedure measured after 48 hr (reference value: 2.30/day)
[24] = tested on: Galendromus occidentalis; assay: Toxicity against Metaseiulus occidentalis adults in bean leaf disk infested with two-spotted spider mites assessed as average number of eggs laid (fecundity) at 0.1600 g AI/L treated using worst-case laboratory exposure procedure measured after 24 hr (reference value: 2.11/day)
[25] = tested on: Galendromus occidentalis; assay: Ovicidal activity against Metaseiulus occidentalis eggs in bean leaf disk infested with two-spotted spider mites assessed as corrected cumulative mortality at 250 g/kg WG formulation treated using worst-case laboratory exposure procedure measured after 144 hr (reference value: 0.7%)

Compound: CCC(C)(C)C(=O)OC1=C(c2ccc(Cl)cc2Cl)C(=O)OC12CCCCC2 [SPIRODICLOFEN]
- Repellency [1]: 13.5%
- Repellency [2]: 15.4%
- Repellency [3]: 6.4%
- Activity [4]: 1.43 day⁻¹
- mortality [5]: 2.1%
- Activity [6]: 1.83 day⁻¹
- Activity [7]: 1.93 day⁻¹
- mortality at 240000 µg/mL (stock) [8]: 2.3%

Compound: N#C/N=C1\SCCN1Cc1ccc(Cl)nc1 [THIACLOPRID]
- Repellency [9]: 49.4%
- Repellency [10]: 44.9%
- Repellency [11]: 12.2%
- Activity [12]: 1.58 day⁻¹
- mortality [13]: 2.8%
- mortality [14]: 2.3%
- Activity [15]: 1.26 day⁻¹
- Activity [16]: 1.64 day⁻¹
- mortality [17]: 5.8%
- mortality at 480000 µg/mL (stock) [18]: 1.9%

Compound: CN1COCN(Cc2cnc(Cl)s2)/C1=N\[N+](=O)[O-] [THIAMETHOXAM]
- Repellency [19]: 41%
- Repellency [20]: 34%
- Repellency [21]: 5.1%
- Activity [22]: 0.58 day⁻¹
- mortality [13]: 8%
- mortality [14]: 6.2%
- Activity [23]: 0.33 day⁻¹
- Activity [24]: 1.44 day⁻¹
- mortality [17]: 8.5%
- mortality [25]: 4.3%
